The values that follow come from patent US20200171063A1, “Use Of Cholesterol For Promoting Survival And Proliferation Of Primary Medulloblastoma Cells” (Institute For Cancer Research d/b/a The Research Institute …, priority 2017, published 2020).

Assay [1] has as its system MB cells isolated from Ptch1+/− mice. Nature of the assay: Ki67 immunocytochemistry of cultured primary MB cells. Type of assay: cell-based, mouse. As to the method: MB cells isolated from Ptch1^+/− mice were cultured with NB-B27 culture medium (lacking cholesterol) in the presence of simvastatin or triparanol at designated concentrations.
Cell culture: Primary mouse medulloblastoma cells were isolated from full-blown mouse-derived tumor as described before (Yang et al., 2008, Cancer Cell, 14, 135-145). Obtained cells were cultured on glass coverslips coated with 0.1 mg/ml poly-D-lysine (Millipore, A-003-E). Cells were pulsed with 10 μM of BrdU (Millipore, 19-160) for 2 hours prior to the material collection time point. […]
Histology and immunohistochemistry: Cultured primary MB cells were fixed with 4% PFA on PBS for 15 minutes, permeabilized, and blocked in 10% normal goat serum on PBST (PBS, 0.1% Triton-X100) for 1 hour at room temperature and stained against Ki67 (Abcam, ab15580, 1:1000), NeuN (Abcam, ab104224, 1:200), Caspase 3 (Cell Signaling, 9662, 1:500), BrdU (Sigma-Aldrich, B-8434, 1:500), mCherry (Abcam, ab167453, 1:500), Zic1 (Generous gift from Dr. Sigal, Dana Farber Research Institute, 1:200), S1000 (Sigma-Aldrich, 1:500), YFP (Life Technologies, 1:500).
Prior to BrdU immunostaining, cells were incubated in pH 5.0 buffer for 30 minutes at 37 C. Secondary antibodies were applied at dilution 1:500 on 10% normal goat serum on PBST for 2 hours at room temperature. Samples were counterstained with DAPI and mounted with Fluoromount-G.
MB cells were isolated from Ptc^+/− mouse and cultured in presence of simvastatin (see, FIG. 2A, panels B-D) or triparanol (see, FIG. 2A, panel E), and water-soluble cholesterol (see, FIG. 2A, panels F-J). After 48 hours in vitro, culture cells were fixed, stained against Ki67 (red), and counterstained with DAPI. […] Significance asterisk key: p value <0.05 (*), p<0.01 (**), p<0.001 (***), p<0.0001 (****).

In assay [2] the test system is Hh signaling (Gli1 expression) in MB cells isolated from Ptch1+/− mice. Nature of the assay: Western blot of Gli1 protein expression in Ptc+/− MB cells. Type of assay: cell-based, mouse. An excerpt:
Western blotting: Cells and tissues were lysed in RIPA buffer (Thermo) supplemented with protease (Roche) and phosphatase (Thermo) inhibitors cocktail. Total protein lysates were separated in 8% SDS-PAGE and transferred on PVDF membrane. Membranes were probed with antibodies against Gli1 (Cell Signaling, 1:1000) and GAPDH (Sigma-Aldrich, 1:1000). Western Blot signals were detected with SuperSignal West Pico Substrate and exposed on films. […] Having observed that MB cell proliferation was compromised after cholesterol deficiency, it was postulated that cholesterol may promote Hh pathway activation. Western blotting: Cells and tissues were lysed in RIPA buffer (Thermo) supplemented with protease (Roche) and phosphatase (Thermo) inhibitors cocktail. Total protein lysates were separated in 8% SDS-PAGE and transferred on PVDF membrane. Membranes were probed with antibodies against GLI1 (Cell Signaling, 1:1000), NSDHL (Proteintech, 1:1000), Ptch1 (Novus Biologicals, 1:1000), GAPDH (Sigma-Aldrich, 1:1000). Western Blot signals were detected with SuperSignal West Pico Substrate and exposed on films. MB cells isolated from Ptch1^+/− mice were treated with Simvastatin with and without addition of WSC. At 48 hours after the treatment, cells were harvested to measure Hh signaling through examining Gli1 expression by Western blotting. […]

The test system of assay [3] is Hh signaling (Gli1 protein expression) in NIH3T3 cells. Nature of the assay: Western blot of Gli1 protein in NIH3T3 cells upon Hh treatment. The assay is classed as cell-based. An excerpt:
(§1) Having observed that MB cell proliferation was compromised after cholesterol deficiency, it was postulated that cholesterol may promote Hh pathway activation. Western blotting: Cells and tissues were lysed in RIPA buffer (Thermo) supplemented with protease (Roche) and phosphatase (Thermo) inhibitors cocktail. Total protein lysates were separated in 8% SDS-PAGE and transferred on PVDF membrane. Membranes were probed with antibodies against GLI1 (Cell Signaling, 1:1000), NSDHL (Proteintech, 1:1000), Ptch1 (Novus Biologicals, 1:1000), GAPDH (Sigma-Aldrich, 1:1000). Western Blot signals were detected with SuperSignal West Pico Substrate and exposed on films.
MB cells isolated from Ptch1^+/− mice were treated with Simvastatin with and without addition of WSC. At 48 hours after the treatment, cells were harvested to measure Hh signaling through examining Gli1 expression by Western blotting. To further examine the requirement of cholesterol in Hh signal transduction, NIH3T3 cells that have all components involved in Hh signaling were utilized.
FIG. 4 (panels C and D) show Western blot analysis of GLI1 protein expression in Ptcfl/fl (see, FIG. 4, panel C) and SmoM2 MEFs (see, FIG. 4, panel D) following CreYFP carrying lentivirus infection and subsequent simvastatin, triparanol and water soluble cholesterol treatment for 48 hours in vitro. […] GAPDH was used as a loading control. […]

Assay [4] relates to Hh signaling (Gli1 expression) in Ptch1-deficient MEFs. Nature of the assay: Western blot of Gli1 protein in Ptch1-deficient MEFs (Ptch1fl/fl + Cre lentivirus). The assay is classed as cell-based, mouse.
Text: as §1
(§2) Primary mouse embryonic fibroblasts (MEFs) from Ptch1fl/fl mice carrying a proportion of Ptch1 gene flanked by loxp sites (Ellis et al., Genesis, 2003, 36, 158-161), or SmoM2 mice expressing a constitutively activated form of Smo upon Cre recombination (Jeong et al., Genes & Develop., 2004, 18, 937-951) were generated. MEFs were then infected with a lentivirus carrying Cre recombinase to activate Hh signaling, or with an empty vector as a control. At 48 hours after the infection, MEFs were harvested to examine Gli1 protein expression by Western blotting. […]
A general note: In western blotting, separated proteins are transferred to a membrane and probed.

The subject of another assay is MB cells. Nature of the assay: MTT viability assay of MB cells. The assay is classed as cell-based, mouse. The following applies: after treatment with simvastatin or triparanol. A general note: Formazan colour is commonly taken as a measure of viable cells.
The test system of assay [5] is Hh signaling (Gli1 protein expression) in Smo-activated MEFs. Nature of the assay: Western blot of Gli1 protein in Smo-activated (SmoM2) MEFs. The following applies: 48 hours. The assay is classed as cell-based, mouse.
Text: as §1, §2

In assay [6] the test system is Hh signaling (Ptch1 protein expression) in Gli1-overexpressed NIH3T3 cells. Kind of assay: Western blot of Ptch1 protein in Gli1-overexpressed NIH3T3 cells. The assay is classed as cell-based. The following applies: 48 hours.
Text: as §1
FIG. 4 (panels C and D) show Western blot analysis of GLI1 protein expression in Ptcfl/fl (see, FIG. 4, panel C) and SmoM2 MEFs (see, FIG. 4, panel D) following CreYFP carrying lentivirus infection and subsequent simvastatin, triparanol and water soluble cholesterol treatment for 48 hours in vitro. […] GAPDH was used as a loading control. […] In the absence of Hh ligand, its receptor Ptch1, tethers pathway effector Smo. Bound to Ptch1, Hh releases Smo, causes activation of Gli1 transcription factor, and leads to transcription of Hh pathway genes (Gli1, Ptch1, etc.). Cholesterol promotes Smo activation during Hh signal transduction. […]

Assay [7] relates to Ptc+/− MB subcutaneous allograft. Nature of the assay: Ptc+/− MB subcutaneous allograft in CB17/SCID mice. The assay is classed as in vivo, mouse. The following applies: vismodegib 5 mg/kg/day, per os.

As for `CC(C)CCC[C@@H](C)[C@H]1CC[C@H]2[C@@H]3CC=C4C[C@@H](O)CC[C@]4(C)[C@H]3CC[C@]12C` [WSC, cholesterol], the “tumor cell proliferation over time (Ki67 immunocytochemistry)” value in assay [1] (15 μM WSC, 0 to 96 hours time course) was “prolonged tumor cell proliferation”. Further, the “rescue of repressed MB cell proliferation (Ki67)” value in assay [1] (addition of cholesterol after simvastatin or triparanol treatment, 48 hours) is given as “significantly rescued”. Moreover, the “MB cell proliferation in control culture (Ki67)” value in assay [1] (exogenous cholesterol, control culture without inhibitor) is listed as “enhanced MB cell proliferation”. For the same molecule, the “Gli1 expression levels (western blotting)” value in assay [2] (15 μM WSC, in vitro for 96 hours) is given as “rescued Gli1 expression levels”. Further, the “Gli1 expression in Simvastatin treated MB cells” value in assay [2] (addition of exogenous cholesterol, 48 hours) is “rescued Gli1 expression”. In assay [3] (NIH3T3 cells, exogenous cholesterol added), the “Gli1 protein expression after Simvastatin or Triparanol treatment” value is reported as “upregulated”. In assay [4] (addition of exogenous cholesterol), the “restoration of Gli1 expression inhibited by simvastatin or triparanol” value is recorded as “restored”.
As for `CCN(CC)CCOc1ccc(C(O)(Cc2ccc(Cl)cc2)c2ccc(C)cc2)cc1` (centres unmarked) [triparanol], in assay [1] (48 hours in culture, NB-B27 medium lacking cholesterol, vs DMSO control), the “percentage of proliferating MB cells (Ki67+)” value is given as “Reduced proliferation”. In addition, in the assay on MB cells, the “proliferation of MB cells by MTT viability assay” value is on record as “Repressed proliferation”. Further, in assay [3] (NIH3T3 cells upon Hh treatment, 48 hours), the Gli1 protein expression result is given as “significantly repressed”. Moreover, the Gli1 expression result in assay [4] (48 hours) is listed as “dramatically inhibited”. Moreover, the “up-regulation of Gli1 protein expression” value in assay [5] is on record as “not altered”. Further, the “upregulation of Ptch1 protein expression” value in assay [6] is “not altered”.
In the case of `CS(=O)(=O)c1ccc(C(=O)Nc2ccc(Cl)c(-c3ccccn3)c2)c(Cl)c1` [vismodegib (GDC0449), vismodegib], in assay [7], the MB growth entry is “prohibited MB growth”.
